From patent US20160158200A1, “Combinations of Hepatitis C Virus Inhibitors” (priority 2013, published 2016)

System: HCV genotype-1a variant with glutamine 30 changed to glutamate in the NS5A protein
Assay type: cell-based
Conditions: not given
Summary of the method: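 Synergy was assessed by combining several fixed amounts of an NS5A-targeting compound with a titration of the second compound of interest.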

| Compound | Fold-Synergistic 1a (Q30E) [fold] |
| --- | --- |
| COc1cc2ccccc2c(C(=O)N2CCC[C@H]2c2ncc(-c3ccc(-c4ccc(-c5cnc([C@@H](NC(=O)C(C)(C)C)C(C)C)[nH]5)cc4)cc3)[nH]2)n1 [Compound Y-13] | >100 |

Same assay, conditions: test compound titrated with BMS-790052 fixed at 200 nM; genotype 1a Q30E replicon

| Compound | Fold-Synergistic 1a (Q30E) [fold] |
| --- | --- |
| CC(C)(C)[C@H](NC(=O)C1(NC(=O)C(F)(F)F)CCCCC1)c1nc(-c2ccc(-c3ccc(-c4c[nH]c([C@@H](NC(=O)C5(NC(=O)C(F)(F)F)CCCCC5)C(C)(C)C)n4)cc3)cc2)c[nH]1.O=C(O)C(F)(F)F.O=C(O)C(F)(F)F [Compound W-269] | >100 |
| [2H]C([2H])([2H])C(=O)NC1(C(=O)N[C@H](c2nc(-c3ccc(-c4ccc(-c5c[nH]c([C@@H](NC(=O)C6(NC(=O)C([2H])([2H])[2H])CCCCC6)C(C)(C)C)n5)cc4)cc3)c[nH]2)C(C)(C)C)CCCCC1 [Compound W-272] | >100 |
| CC(C)(C)[C@H](NC(=O)C1(NC(=O)CC2CC2)CCCCC1)c1nc(-c2ccc(-c3ccc(-c4c[nH]c([C@@H](NC(=O)C5(NC(=O)CC6CC6)CCCCC5)C(C)(C)C)n4)cc3)cc2)c[nH]1 [Compound W-276] | >100 |
| CC(C)OC(C)(C)C(=O)N[C@H](c1nc(-c2ccc(-c3ccc(-c4c[nH]c([C@@H](NC(=O)C(C)(C)OC(C)C)C(C)(C)C)n4)cc3)cc2)c[nH]1)C(C)(C)C [Compound Y-1] | >100 |
| CC(C)(OCC(F)(F)F)C(=O)N[C@H](c1nc(-c2ccc(-c3ccc(-c4c[nH]c([C@@H](NC(=O)C(C)(C)OCC(F)(F)F)C(C)(C)C)n4)cc3)cc2)c[nH]1)C(C)(C)C [Compound Y-2] | >100 |
| CC(C)(OCCF)C(=O)N[C@H](c1nc(-c2ccc(-c3ccc(-c4c[nH]c([C@@H](NC(=O)C(C)(C)OCCF)C(C)(C)C)n4)cc3)cc2)c[nH]1)C(C)(C)C [Compound Y-3] | >100 |
| CC(C)(Oc1ccccc1F)C(=O)N[C@H](c1nc(-c2ccc(-c3ccc(-c4c[nH]c([C@@H](NC(=O)C(C)(C)Oc5ccccc5F)C(C)(C)C)n4)cc3)cc2)c[nH]1)C(C)(C)C [Compound Y-4] | >100 |
| CC(C)(C)[C@H](NC(=O)C1CCCCO1)c1nc(-c2ccc(-c3ccc(-c4c[nH]c([C@@H](NC(=O)C5CCCCO5)C(C)(C)C)n4)cc3)cc2)c[nH]1 (stereo partly drawn) [Compound Y-5] | >100 |
| CC(C)(C)[C@H](NC(=O)C1CCCCO1)c1nc(-c2ccc(-c3ccc(-c4c[nH]c([C@@H](NC(=O)C5CCCCO5)C(C)(C)C)n4)cc3)cc2)c[nH]1 (stereo partly drawn) [Compound Y-6] | >100 |
| CC(C)(C)[C@H](NC(=O)C1C2CC(F)(F)CC21)c1nc(-c2ccc(-c3ccc(-c4c[nH]c([C@@H](NC(=O)C5C6CC(F)(F)CC65)C(C)(C)C)n4)cc3)cc2)c[nH]1 (stereo partly drawn) [Compound Y-7] | >100 |
| CC(C)(CC(F)(F)F)C(=O)N[C@H](c1nc(-c2ccc(-c3ccc(-c4c[nH]c([C@@H](NC(=O)C(C)(C)CC(F)(F)F)C(C)(C)C)n4)cc3)cc2)c[nH]1)C(C)(C)C [Compound Y-8] | >100 |
| CC(C)(C)[C@H](NC(=O)[C@@H]1C[C@@H]2[C@H](C1)C2(F)F)c1nc(-c2ccc(-c3ccc(-c4c[nH]c([C@@H](NC(=O)[C@@H]5C[C@@H]6[C@H](C5)C6(F)F)C(C)(C)C)n4)cc3)cc2)c[nH]1 [Compound Y-9] | >100 |
| CC(C)(C)[C@H](NC(=O)[C@H]1C[C@@H]2[C@H](C1)C2(F)F)c1nc(-c2ccc(-c3ccc(-c4c[nH]c([C@@H](NC(=O)[C@H]5C[C@@H]6[C@H](C5)C6(F)F)C(C)(C)C)n4)cc3)cc2)c[nH]1 [Compound Y-10] | >100 |
| CC(C)[C@H](NC(=O)C(C)(C)C)c1ncc(-c2ccc(-c3ccc(-c4cnc([C@@H](NC(=O)C(C)(C)C)C(C)C)[nH]4)c(OC(F)F)c3)cc2)[nH]1 [Compound Y-11] | >100 |
| CC(C)[C@H](NC(=O)C1(C)CCCCC1)c1ncc(-c2ccc(-c3ccc(-c4cnc([C@@H](NC(=O)C5(C)CCCCC5)C(C)C)[nH]4)c(OC(F)F)c3)cc2)[nH]1 [Compound Y-12] | >100 |
| CC(C)CC(=O)N1CCC[C@H]1c1ncc(-c2ccc(-c3ccc(-c4cnc([C@@H](NC(=O)C(C)(C)C)C(C)C)[nH]4)cc3)cc2)[nH]1 [Compound Y-14] | >100 |
| CC(C)[C@H](NC(=O)c1ccccc1)c1ncc(-c2ccc(-c3ccc(-c4cnc([C@@H]5CCCN5C(=O)c5ccccc5)[nH]4)cc3)cc2)[nH]1 [Compound Y-15] | >10 |
| CC(C)CC(=O)N[C@H](c1ncc(-c2ccc(-c3ccc(-c4cnc([C@@H]5CCCN5C(=O)CC(C)C)[nH]4)cc3)cc2)[nH]1)C(C)C [Compound Y-16] | >10 |
| COC(=O)NC(C(=O)NC(c1nc(-c2ccc(-c3ccc(-c4cn(C)c(C(NC(=O)C(NC(=O)OC)C(C)C)C(C)C)n4)cc3)cc2)cn1C)C(C)C)C(C)C.O=C(O)C(F)(F)F.O=C(O)C(F)(F)F (stereo not drawn) [Compound Y-17] | >10 |
| CC(C)CC(=O)NC(c1nc(-c2ccc(-c3ccc(-c4cn(C)c(C(NC(=O)CC(C)C)C(C)C)n4)cc3)cc2)cn1C)C(C)C.O=C(O)C(F)(F)F.O=C(O)C(F)(F)F (stereo not drawn) [Compound Y-18] | <10 |
| COc1cc2ccccc2c(C(=O)N[C@H](c2ncc(-c3ccc(-c4ccc(-c5cnc([C@@H](NC(=O)c6nc(OC)cc7ccccc67)C(C)C)[nH]5)cc4)cc3)[nH]2)C(C)C)n1 [Compound Y-19] | >100 |

| Compound | Fold-Synergistic 1a (Q30E) [fold] |
| --- | --- |
| CC(C)[C@H](NC(=O)c1ccc(C(F)(F)F)s1)c1ncc(-c2ccc(-c3ccc(-c4cnc([C@@H](NC(=O)c5ccc(C(F)(F)F)s5)C(C)C)[nH]4)cc3)cc2)[nH]1 [Compound Y-21] | >100 |
| CC(C)[C@H](NC(=O)c1cc(F)cc(F)c1)c1ncc(-c2ccc(-c3ccc(-c4cnc([C@@H](NC(=O)c5cc(F)cc(F)c5)C(C)C)[nH]4)cc3)cc2)[nH]1 [Compound Y-23] | >100 |
| CC(C)[C@H](NC(=O)c1cc(Cl)ccc1F)c1ncc(-c2ccc(-c3ccc(-c4cnc([C@@H](NC(=O)c5cc(Cl)ccc5F)C(C)C)[nH]4)cc3)cc2)[nH]1 [Compound Y-24] | >100 |
| CC(C)[C@H](NC(=O)C(C)(C)n1cccn1)c1ncc(-c2ccc(-c3ccc(-c4cnc([C@@H](NC(=O)C(C)(C)n5cccn5)C(C)C)[nH]4)cc3)cc2)[nH]1 [Compound Y-25] | >100 |
| CC(C)[C@H](NC(=O)C(C)(C)NC(=O)OC(C)(C)C)c1ncc(-c2ccc(-c3ccc(-c4cnc([C@@H](NC(=O)C(C)(C)NC(=O)OC(C)(C)C)C(C)C)[nH]4)cc3)cc2)[nH]1 [Compound Y-26] | >100 |
| CC(C)[C@H](NC(=O)c1sccc1F)c1ncc(-c2ccc(-c3ccc(-c4cnc([C@@H](NC(=O)c5sccc5F)C(C)C)[nH]4)cc3)cc2)[nH]1 [Compound Y-28] | >100 |
| CC(C)OC(C)(C)C(=O)N[C@H](c1ncc(-c2ccc(-c3ccc(-c4cnc([C@@H](NC(=O)C(C)(C)OC(C)C)C(C)C)[nH]4)cc3)cc2)[nH]1)C(C)C [Compound Y-29] | >100 |
| CC(C)[C@H](NC(=O)C1(F)CCCCC1)c1ncc(-c2ccc(-c3ccc(-c4cnc([C@@H](NC(=O)C5(F)CCCCC5)C(C)C)[nH]4)cc3)cc2)[nH]1 [Compound Y-30] | >100 |
| CC(C)[C@H](NC(=O)C(C)(C)OCC(F)(F)F)c1ncc(-c2ccc(-c3ccc(-c4cnc([C@@H](NC(=O)C(C)(C)OCC(F)(F)F)C(C)C)[nH]4)cc3)cc2)[nH]1 [Compound Y-31] | >100 |
| CC(C)[C@H](NC(=O)C(C)(C)OCCF)c1ncc(-c2ccc(-c3ccc(-c4cnc([C@@H](NC(=O)C(C)(C)OCCF)C(C)C)[nH]4)cc3)cc2)[nH]1 [Compound Y-32] | >100 |
| CC(C)[C@H](NC(=O)C(C)(C)Oc1ccccc1F)c1ncc(-c2ccc(-c3ccc(-c4cnc([C@@H](NC(=O)C(C)(C)Oc5ccccc5F)C(C)C)[nH]4)cc3)cc2)[nH]1 [Compound Y-33] | >100 |
| CC1([C@H](NC(=O)C2CCC(F)(F)CC2)c2ncc(-c3ccc(-c4ccc(-c5cnc([C@@H](NC(=O)C6CCC(F)(F)CC6)C6(C)CC6)[nH]5)cc4)cc3)[nH]2)CC1 [Compound Y-34] | >100 |
| CC(C)(C)C(=O)N[C@H](c1ncc(-c2ccc(-c3ccc(-c4cnc([C@@H](NC(=O)C(C)(C)C)C5(C)CC5)[nH]4)cc3)cc2)[nH]1)C1(C)CC1 [Compound Y-35] | >100 |
| CC(C)(F)C(=O)N[C@H](c1ncc(-c2ccc(-c3ccc(-c4cnc([C@@H](NC(=O)C(C)(C)F)C5(C)CC5)[nH]4)cc3)cc2)[nH]1)C1(C)CC1 [Compound Y-36] | >100 |
| CC1([C@H](NC(=O)C2CCC(F)(F)CC2)c2ncc(-c3ccc(-c4ccc(-c5cnc([C@@H](NC(=O)C6CCC(F)(F)CC6)C6(C)CCC6)[nH]5)cc4)cc3)[nH]2)CCC1 [Compound Y-38] | >100 |
| CC(C)(C)C(=O)N[C@H](c1ncc(-c2ccc(-c3ccc(-c4cnc([C@@H](NC(=O)C(C)(C)C)C5(C)CCC5)[nH]4)cc3)cc2)[nH]1)C1(C)CCC1 [Compound Y-39] | >100 |
| CC(C)[C@H](NC(=O)OC(C)(C)C)c1ncc(-c2ccc(-c3ccc(-c4cnc([C@@H](NC(=O)OC(C)(C)C)C(C)(C)C)[nH]4)cc3)cc2)[nH]1 [Compound Y-40] | >100 |
| CC(C)[C@H](NC(=O)C(C)(C)C)c1ncc(-c2ccc(-c3ccc(-c4cnc([C@@H](NC(=O)C(C)(C)C)C(C)(C)C)[nH]4)cc3)cc2)[nH]1 [Compound Y-41] | >100 |
| CC(C)[C@H](NC(=O)C1CCC(F)(F)CC1)c1ncc(-c2ccc(-c3ccc(-c4cnc([C@@H](NC(=O)C5CCC(F)(F)CC5)C(C)(C)C)[nH]4)cc3)cc2)[nH]1 [Compound Y-42] | >100 |
| CC(C)[C@H](NC(=O)c1c(F)cccc1Cl)c1ncc(-c2ccc(-c3ccc(-c4cnc([C@@H](NC(=O)c5c(F)cccc5Cl)C(C)(C)C)[nH]4)cc3)cc2)[nH]1 [Compound Y-43] | >100 |
